Measured values reported in patent publication US8921271B2, “Herbicidal composition comprising flazasulfuron and metribuzin” (Ishihara Sangyo Kaisha, Ltd., priority 2011, dated 2014).

Tests used:
[1] = test system: summergrass, giant foxtail, redroot pigweed and threeseeded copperleaf; assay: Test Example 5: field test, foliar treatment, weed coverage (residual activity); type: in vivo; details: for Weed coverage (%) 6th day after treatment / Weed coverage (%) 20th day after treatment / Weed coverage (%) 33rd day after treatment: field, foliar treatment with 0.25 vol % Agral, coverage relative to non-treated area; for change in weed coverage: on the 20th day after the treatment, single active ingredient, field test
From the text: In a field in which summergrass (Digitaria ciliaris (Retz.) Koel), giant foxtail (Setaria faberi Herrm.), redroot pigweed (Amaranthus retroflexus L.) and threeseeded copperleaf (Acalypha australis L.) emerged, was compartmentalized into compartments of 0.5×1 m. When summergrass reached from 5 to 10 leaf stage, giant foxtail reached from 6 to 7 leaf stage, threeseeded copperleaf reached from 4 to 10 leaf stage and redroot pigweed reached from 6 to 9 leaf stage, SHIBAGEN DF (tradename) and Unimark (tradename) in predetermined amounts were diluted with water (corresponding to 200 L/ha) containing 0.25 vol % of an agricultural adjuvant Agral (tradename) and applied for foliar treatment by a small sprayer in each compartment.
On the 6th, 20th and 33rd days after the treatment, the weed coverage (%) of the above four types of weeds in each compartment was visually observed, and the results are shown in Table 5 and FIG. 1. The weed coverage (%) was calculated in accordance with the following formula.
A: (the area of the ground surface covered with the weed aerial part (leaves and stem) in the treated area)
B: (the area of the ground surface covered with the weed aerial part (leaves and stem) in the non-treated area) Weed coverage(%)=(A/B)×100
In FIG. 1, x-x represents the weed coverage in the area treated with flazasulfuron, ▴-▴ represents the weed coverage in the area treated with metribuzin, and ●-● represents the weed coverage in the area treated with flazasulfuron and metribuzin in combination.

goosegrass [2] = assay: Test Example 1: pot test, soil treatment, visual growth inhibition of goosegrass; type: in vivo, Eleusine indica (L.) Gaertn.; details: Eleusine indica, 24 h, soil treatment one day after sowing, 14th day after treatment, read-out: Growth inhibition rate (%) of goosegrass, Measured value
Experimental: Upland field soil was put into a 1/1,000,000 hectare pot, and seeds of goosegrass (Eleusine indica (L.) Gaertn.) were sown. One day later, water dispersible granules containing flazasulfuron as an active ingredient (tradename: SHIBAGEN DF, manufactured by Ishihara Sangyo Kaisha, Ltd.) and water dispersible granules containing metribuzin as an active ingredient (tradename: Unimark, manufactured by UPL) in predetermined amounts were diluted with water corresponding to 200 L/ha and applied for soil treatment by a small sprayer.
On the 14th day after the treatment, the state of growth of goosegrass was visually observed to determine the growth inhibition rate (%) (measured value) in accordance with the following evaluation standard. Further, in accordance with the Colby's formula, the growth inhibition rate (%) (calculated value) was calculated. Growth inhibition rate(%)=0 (equivalent to the non-treated area) to 100 (complete kill)

ivy-leaved morningglory = assay: Test Example 3: pot test, treatment the day after sowing, visual growth inhibition of ivy-leaved morningglory; type: in vivo, Ipomoea hederacea (L.) Jacq.; details: Ipomoea, treatment on the day after sowing, 14th day after treatment, read-out: Growth inhibition rate (%) of ivy-leaved morningglory, Measured value
Experimental: Upland field soil was put into a 1/1,000,000 ha pot, and seeds of ivy-leaved momingglory (Ipomoea hederacea (L.) Jacq.) were sown. On the next day, SHIBAGEN DF (tradename) and Unimark (tradename) in predetermined amounts were diluted with water corresponding to 300 L/ha and applied for […] by a small sprayer. On the 14th day after the treatment, the state of growth of ivy-leaved momingglory was visually observed, and the growth inhibition rate (%) obtained in the same manner as in Test Example 1 is shown in Table 3.

shattercane = assay: Test Example 4: pot test, soil treatment, visual growth inhibition of shattercane; type: in vivo, Sorghum bicolor (L.) Moench.; details: Sorghum bicolor, soil treatment on the day after sowing, 14th day after treatment, read-out: Growth inhibition rate (%) of shattercane, Measured value
Experimental: Upland field soil was put into a 1/1,000,000 ha pot, and seeds of shattercane (Sorghum bicolor (L.) Moench.) were sown. On the next day, SHIBAGEN DF (tradename) and Unimark (tradename) in predetermined amounts were diluted with water corresponding to 300 L/ha and applied for soil treatment by a small sprayer.
On the 14th day after the treatment, the state of growth of shattercane was visually observed, and the growth inhibition rate (%) obtained in the same manner as in Test Example 1 is shown in Table 4.

goosegrass [3] = assay: Test Example 2: pot test, foliar treatment at 5 leaf stage, visual growth inhibition of goosegrass; type: in vivo, Eleusine indica (L.) Gaertn.; details: Eleusine indica, foliar treatment at 5 leaf stage with 0.25 vol % Agral, 28th day after treatment, read-out: Growth inhibition rate (%) of goosegrass, Measured value
Experimental: Upland field soil was put into a 1/1,000,000 ha pot, and seeds of goosegrass (Eleusine indica (L.) Gaertn.) were sown. When goosegrass reached 5 leaf stage, SHIBAGEN DF (tradename) and Unimark (tradename) in predetermined amounts were diluted with water (corresponding to 200 L/ha) containing 0.25 vol % of an agricultural adjuvant (tradename: Agral, manufactured by Syngenta crop protection) and applied for foliar treatment by a small sprayer.
On the 28th day after the treatment, the state of growth of goosegrass was visually observed, and the growth inhibition rate (%) obtained in the same manner as in Test Example 1 is shown in Table 2.

Row | SMILES | Weed coverage (%) 6th day after treatment ([1]; dose 37.5 g/ha) [%] | Weed coverage (%) 20th day after treatment ([1]; dose 37.5 g/ha) [%] | Weed coverage (%) 33rd day after treatment ([1]; dose 37.5 g/ha) [%] | change in weed coverage [1] | inhibition at 18.75 g/ha (goosegrass [2]; dose 18.75 g/ha, 0 = non-treated, 100 = complete kill) [%] | inhibition at 100 g/ha (ivy-leaved morningglory; dose 100 g/ha) [%] | inhibition at 15 g/ha (shattercane; dose 15 g/ha) [%] | inhibition at 37.5 g/ha (goosegrass [3]; dose 37.5 g/ha) [%] | Weed coverage (%) 6th day after treatment ([1]; dose 1,200 g/ha) [%] | Weed coverage (%) 20th day after treatment ([1]; dose 1,200 g/ha) [%] | Weed coverage (%) 33rd day after treatment ([1]; dose 1,200 g/ha) [%] | inhibition at 300 g/ha (goosegrass [2]; dose 300 g/ha) [%] | inhibition at 600 g/ha (goosegrass [2]; dose 600 g/ha) [%] | inhibition at 300 g/ha (ivy-leaved morningglory; dose 300 g/ha) [%] | inhibition at 2000 g/ha (shattercane; dose 2,000 g/ha) [%] | inhibition at 800 g/ha (goosegrass [3]; dose 800 g/ha) [%] | inhibition at 1000 g/ha (goosegrass [3]; dose 1,000 g/ha) [%]
1 | COc1cc(OC)nc(NC(=O)NS(=O)(=O)c2ncccc2C(F)(F)F)n1 [Flazasulfuron, 1-(4,6-dimethoxypyrimidin-2-yl)-3-(3-trifluoromethyl-2-pyridylsulfonyl)urea] | 26 | 30 | 65 | an increase in the weed coverage was confirmed | 30 | 80 | 30 | 25 | – | – | – | – | – | – | – | – | –
2 | CSc1nnc(C(C)(C)C)c(=O)n1N [Metribuzin, 4-amino-6-tertiary butyl-3-methylthio-1,2,4-triazin-5(4H)-one] | – | – | – | an increase in the weed coverage was confirmed | – | – | – | – | 19 | 24 | 35 | 55 | 73 | 0 | 20 | 83 | 90
